Reference: patent publication US8791130B2, “Aminopyrimidine derivatives as LRRK2 modulators” (Genentech, Inc., priority 2011, dated 2014)

What follows are compounds tested against LRRK2 (Homo sapiens (Human), UniProt Q5S007, G2019S) (assay: In Vitro LRRK2 LabChip Assay (LRRK2 Ki)).
Assay type: biochemical
Experimental: In Vitro LRRK2 LabChip Assay This assay was used to determine a compound's potency in inhibiting activity of LRRK2 by determining, Kiapp, IC50, or percent inhibition values. In a polypropylene plate, LRRK2, fluorescently-labeled peptide substrate, ATP and test compound were incubated together. Using a LabChip 3000 (Caliper Life Sciences), after the reaction the substrate was separated by capillary electrophoresis into two populations: phosphorylated and unphosphorylated. The relative amounts of each were quantitated by fluorescence intensity. LRRK2 Ki was determined according to the equation: […]))). Ki values in Table 4 and elsewhere herein are shown in μM. […] Substrate: 5[…] Non-binding plate: 384 well clear V-bottom polypropylene plates (Greiner cat #781280). ATP: 10 mM ATP (Cell Signaling cat #9804). Triton X-100: Triton X-100. Brij-35: Brij-35 (Pierce cat #20150). […] DMSO: DMSO (Sigma cat #34869-100 ML). […] Compound Plate Preparation: For serial dilutions, 34.6 μl DMSO was added to columns 3-24. For the assay controls, 37.5 μl DMSO was added to columns 1 and 2 of rows A and […]-028831 (Staurosporine) was added to columns 1 and 2, row B. […] A Precision instrument was used to perform 1:3.16 serial dilutions (“PLK_BM_serial_halflog”). ATP Preparation: ATP was diluted to 282.1 μM in Complete Kinase Buffer (final concentration was 130 μM). […] Assay Procedure: To a 50 μl polypropylene plate, 5 μl/well buffer/substrate was added by hand to Blank wells. A Biomek FX was used to start the kinase reaction (“PLK SAR 23 ATP”). […] 5 μl/well kinase/substrate in Assay Plate; The plate was incubated for 2 hours in the dark. Biomek FX was used to stop the kinase reaction (“PLK Stop”), and 10 μl/well Stop solution was added to the Assay Plate.

LRRK2, sequence (Q5S007 970-2527 G2019S): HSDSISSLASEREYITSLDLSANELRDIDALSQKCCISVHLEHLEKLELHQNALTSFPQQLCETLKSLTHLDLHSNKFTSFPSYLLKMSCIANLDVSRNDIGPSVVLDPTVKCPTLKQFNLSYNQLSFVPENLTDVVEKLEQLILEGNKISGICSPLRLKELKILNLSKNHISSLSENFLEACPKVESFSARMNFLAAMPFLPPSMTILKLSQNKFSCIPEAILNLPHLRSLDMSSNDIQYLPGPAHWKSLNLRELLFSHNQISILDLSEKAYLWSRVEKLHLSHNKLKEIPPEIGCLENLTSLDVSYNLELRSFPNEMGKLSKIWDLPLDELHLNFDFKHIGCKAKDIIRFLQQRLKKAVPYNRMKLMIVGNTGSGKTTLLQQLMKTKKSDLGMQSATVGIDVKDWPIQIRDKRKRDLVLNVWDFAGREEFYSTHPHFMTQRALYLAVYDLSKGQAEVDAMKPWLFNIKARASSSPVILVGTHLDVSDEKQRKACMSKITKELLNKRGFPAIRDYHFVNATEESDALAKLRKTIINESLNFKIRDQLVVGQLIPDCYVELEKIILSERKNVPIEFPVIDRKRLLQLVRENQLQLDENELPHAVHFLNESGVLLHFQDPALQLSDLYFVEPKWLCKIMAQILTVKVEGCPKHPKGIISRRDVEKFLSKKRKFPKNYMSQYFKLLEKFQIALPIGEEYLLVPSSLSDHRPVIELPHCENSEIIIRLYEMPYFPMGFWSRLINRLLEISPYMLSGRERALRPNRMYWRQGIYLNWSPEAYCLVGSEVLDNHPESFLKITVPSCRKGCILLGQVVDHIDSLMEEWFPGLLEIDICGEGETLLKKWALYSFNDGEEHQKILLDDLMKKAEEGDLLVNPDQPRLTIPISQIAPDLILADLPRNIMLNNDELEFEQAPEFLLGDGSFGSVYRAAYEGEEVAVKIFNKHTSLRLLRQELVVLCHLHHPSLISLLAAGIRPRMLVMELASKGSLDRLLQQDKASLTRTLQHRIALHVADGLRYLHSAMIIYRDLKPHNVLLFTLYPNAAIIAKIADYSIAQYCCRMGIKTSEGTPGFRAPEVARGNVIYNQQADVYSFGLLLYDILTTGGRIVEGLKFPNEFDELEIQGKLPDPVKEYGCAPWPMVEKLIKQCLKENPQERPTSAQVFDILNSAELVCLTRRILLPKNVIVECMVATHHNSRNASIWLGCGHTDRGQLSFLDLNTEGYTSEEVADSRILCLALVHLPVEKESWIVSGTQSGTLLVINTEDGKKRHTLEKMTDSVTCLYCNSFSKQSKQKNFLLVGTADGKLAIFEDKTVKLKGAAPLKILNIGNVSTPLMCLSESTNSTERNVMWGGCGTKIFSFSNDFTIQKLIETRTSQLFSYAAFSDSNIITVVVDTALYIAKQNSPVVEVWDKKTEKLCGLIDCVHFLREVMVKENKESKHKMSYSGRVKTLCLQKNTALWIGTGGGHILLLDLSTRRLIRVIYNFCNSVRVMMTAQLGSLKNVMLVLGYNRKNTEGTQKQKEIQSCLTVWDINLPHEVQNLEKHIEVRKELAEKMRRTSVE

| Compound | Ki |
| --- | --- |
| CNc1nc(Nc2ccc(-c3nnn[nH]3)cc2Cl)ncc1C(F)(F)F [Compound 1, N2-(2-chloro-4-(2H-tetrazol-5-yl)phenyl)-N4-methyl-5-(trifluoromethyl) pyrimidine-2,4-diamine] | 3 nM |
| CNc1nc(Nc2ccc(-c3nnnn3C)cc2Cl)ncc1C(F)(F)F [Compound 2, N2-(2-chloro-4-(1-methyl-1H-tetrazol-5-yl)phenyl)-N4-methyl-5-(trifluoromethyl) pyrimidine-2,4-diamine] | 7 nM |
| CNc1nc(Nc2ccc(-c3nnn(C)n3)cc2Cl)ncc1C(F)(F)F [Compound 3, N2-(2-chloro-4-(2-methyl-2H-tetrazol-5-yl)phenyl)-N4-methyl-5-(trifluoromethyl) pyrimidine-2,4-diamine] | 18 nM |
| CNc1nc(Nc2ccc(-n3cncn3)cc2OC)ncc1C(F)(F)F [Compound 4, N2-(2-methoxy-4-(1H-1,2,4-triazol-1-yl)phenyl)-N4-methyl-5-(trifluoromethyl) pyrimidine-2,4-diamine] | 3 nM |
| CNc1nc(Nc2ccc(-c3cnn(C)c3)cc2OC)ncc1C(F)(F)F [Compound 5, N2-(2-methoxy-4-(1-methyl-1H-pyrazol-4-yl)phenyl)-N4-methyl-5-(trifluoromethyl) pyrimidine-2,4-diamine] | 4 nM |
| CNc1nc(Nc2ccc(-c3nnnn3C)cc2OC)ncc1Cl [Compound 10, 5-chloro-N^2-(2-methoxy-4-(1-methyl-1H-tetrazol-5-yl)phenyl)-N^4-methylpyrimidine-2,4-diamine] | 7 nM |
| CNc1nc(Nc2ccc(-c3cnoc3)cc2OC)ncc1Cl [Compound 14, 5-chloro-N^2-(4-(isoxazol-4-yl)-2-methoxyphenyl)-N^4-methylpyrimidine-2,4-diamine] | 15 nM |
| CNc1nc(Nc2ccc(-c3cncn3C)cc2OC)ncc1Cl [Compound 16, 5-chloro-N2-(2-methoxy-4-(1-methyl-1H-imidazol-5-yl)phenyl)-N4-methylpyrimidine-2,4-diamine] | 2 nM |
| CNc1nc(Nc2ccc(-c3cnnn3C)cc2OC)ncc1C(F)(F)F [Compound 17, N^2-(2-methoxy-4-(1-methyl-1H-1,2,3-triazol-5-yl)phenyl)-N^4-methyl-5-(trifluoromethyl) pyrimidine-2,4-diamine] | 2 nM |
| CNc1nc(Nc2ccc(-c3nnn(C)n3)cc2OC)ncc1C(F)(F)F [Compound 18, N^2-(2-methoxy-4-(2-methyl-2H-tetrazol-5-yl)phenyl)-N^4-methyl-5-(trifluoromethyl) pyrimidine-2,4-diamine] | 10 nM |
| CNc1nc(Nc2ccc(-c3nnnn3C)cc2OC)ncc1C(F)(F)F [Compound 20, N^2-(2-methoxy-4-(1-methyl-1H-tetrazol-5-yl)phenyl)-N^4-methyl-5-(trifluoromethyl) pyrimidine-2,4-diamine] | 3 nM |
| CNc1nc(Nc2cc(F)c(-c3nnnn3C)cc2OC)ncc1C(F)(F)F [Compound 22, N^2-(5-fluoro-2-methoxy-4-(1-methyl-1H-tetrazol-5-yl)phenyl)-N^4-methyl-5-(trifluoromethyl) pyrimidine-2,4-diamine] | 10 nM |
| CNc1nc(Nc2ccc(-c3cnnn3C)cc2OC)ncc1Cl [Compound 23, 5-chloro-N^2-(2-methoxy-4-(1-methyl-1H-1,2,3-triazol-5-yl)phenyl)-N^4-methylpyrimidine-2,4-diamine] | 3 nM |
| CNc1nc(Nc2cc(OC)c(-c3c(C)nn(C)c3C)cc2Cl)ncc1C(F)(F)F [Compound 24, N^2-(2-chloro-5-methoxy-4-(1,3,5-trimethyl-1H-pyrazol-4-yl)phenyl)-N^4-methyl-5-(trifluoromethyl) pyrimidine-2,4-diamine] | 3 nM |
| CNc1nc(Nc2ccc(-c3c(C)noc3C)cc2OC)ncc1C(F)(F)F [Compound 26, N^2-(4-(3,5-dimethylisoxazol-4-yl)-2-methoxyphenyl)-N^4-methyl-5-(trifluoromethyl) pyrimidine-2,4-diamine] | 1 nM |
| CNc1nc(Nc2cc(OC)c(-c3ccnn3C)cc2Cl)ncc1C(F)(F)F [Compound 28, N^2-(2-chloro-5-methoxy-4-(1-methyl-1H-pyrazol-5-yl)phenyl)-N^4-methyl-5-(trifluoromethyl) pyrimidine-2,4-diamine] | 5 nM |
| CCNc1nc(Nc2cc(F)c(-c3nnc(C)o3)cc2OC)ncc1C(F)(F)F [Compound 29, N^4-ethyl-N^2-(5-fluoro-2-methoxy-4-(5-methyl-1,3,4-oxadiazol-2-yl)phenyl)-5-(trifluoromethyl) pyrimidine-2,4-diamine] | 7 nM |
| CNc1nc(Nc2cc(F)c(-c3nnc(C)o3)cc2OC)ncc1C(F)(F)F [Compound 30, N^2-(5-fluoro-2-methoxy-4-(5-methyl-1,3,4-oxadiazol-2-yl)phenyl)-N^4-methyl-5-(trifluoromethyl) pyrimidine-2,4-diamine] | 12 nM |

The remaining compounds from weak to strong by Ki, led by results:

| Ki | Compound |
| --- | --- |
| 32 nM | CNc1nc(Nc2cc(F)c(-c3nc(C)no3)cc2OC)ncc1C(F)(F)F [Compound 6, N2-(5-fluoro-2-methoxy-4-(3-methyl-1,2,4-oxadiazol-5-yl)phenyl)-N4-methyl-5-(trifluoromethyl) pyrimidine-2,4-diamine] |
| 8 nM | CNc1nc(Nc2cc(OC)c(-c3nnc(C)o3)cc2Cl)ncc1C(F)(F)F [Compound 7, N2-(2-chloro-5-methoxy-4-(5-methyl-1,3,4-oxadiazol-2-yl)phenyl)-N4-methyl-5-(trifluoromethyl) pyrimidine-2,4-diamine] |
| 7 nM | CNc1nc(Nc2ccc(-c3nccn3C)cc2OC)ncc1Cl [Compound 15, 5-chloro-N^2-(2-methoxy-4-(1-methyl-1H-imidazol-2-yl)phenyl)-N^4-methylpyrimidine-2,4-diamine] |
| 4 nM | CNc1nc(Nc2cc(OC)c(-c3cnnn3C)cc2Cl)ncc1C(F)(F)F [Compound 11, N^2-(2-chloro-5-methoxy-4-(1-methyl-1H-1,2,3-triazol-5-yl)phenyl)-N^4-methyl-5-(trifluoromethyl) pyrimidine-2,4-diamine] |
| 3 nM | CNc1nc(Nc2cc(OC)c(-c3nccn3C)cc2Cl)ncc1C(F)(F)F [Compound 19, N^2-(2-chloro-5-methoxy-4-(1-methyl-1H-imidazol-2-yl)phenyl)-N^4-methyl-5-(trifluoromethyl) pyrimidine-2,4-diamine] |
| 3 nM | CNc1nc(Nc2cc(OC)c(-c3cncn3C)cc2Cl)ncc1C(F)(F)F [Compound 21, N^2-(2-chloro-5-methoxy-4-(1-methyl-1H-imidazol-5-yl)phenyl)-N^4-methyl-5-(trifluoromethyl) pyrimidine-2,4-diamine] |
| 2 nM | CNc1nc(Nc2ccc(-c3cncn3C)cc2OC)ncc1C(F)(F)F [Compound 8] |
| 2 nM | CNc1nc(Nc2ccc(-n3cnnn3)cc2OC)ncc1C(F)(F)F [Compound 27, N^2-(2-methoxy-4-(1H-tetrazol-1-yl)phenyl)-N^4-methyl-5-(trifluoromethyl) pyrimidine-2,4-diamine] |
| 1 nM | CNc1nc(Nc2ccc(-c3ccnn3C)cc2OC)ncc1C(F)(F)F [Compound 25, N^2-(2-methoxy-4-(1-methyl-1H-pyrazol-5-yl)phenyl)-N^4-methyl-5-(trifluoromethyl) pyrimidine-2,4-diamine] |
